From ChEMBL document CHEMBL4602617, “Discovery and optimization of heteroaryl piperazines as potent and selective PI3Kδ inhibitors” (Bioorg Med Chem Lett, 2020)

How the values were obtained:
[1] = Unbound clearance in rat at 0.5 mg/kg, iv or 1 mg/kg, po; format: ADME, organism-based; conditions: in vivo
[2] = Protein binding in dog plasma at 0.5 mg/kg, iv or 1 mg/kg, po; format: ADME, organism-based, Canis lupus familiaris; conditions: read-out: PPB (converted)
[3] = target: Serine/threonine-protein kinase MRCK alpha (Homo sapiens, UniProt Q5VT25); experiment: Inhibition of recombinant human His-tagged MRCKalpha catalytic domain (1 to 473 residues) expressed in baculovirus expression system using serine/threonine-13 peptide as substrate incubated for 60 mins in presence of ATP by Z'-LYTE assay
[4] = target: Calcium/calmodulin-dependent protein kinase type 1 (Homo sapiens, UniProt Q14012); experiment: Inhibition of full length human CAMK1 alpha expressed in baculovirus expression system using ZIPtide as substrate after 1 hr in presence of ATP by TR-FRET based assay
[5] = target: AMPK alpha2/beta1/gamma1 (Homo sapiens, UniProt P54619+P54646+Q9Y478); experiment: Inhibition of recombinant full length GST/His-tagged human AMPK alpha2/beta1/gamma1 expressed in baculovirus expression system using Ser/Thr-23 peptide as substrate incubated for 60 mins in presence of ATP by Z'-LYTE assay
[6] = target: Ephrin type-B receptor 1 (Homo sapiens, UniProt P54762); experiment: Inhibition of recombinant human GST-tagged EPHB1 catalytic domain expressed in baculovirus expression system using tyrosine-2 peptide as substrate incubated for 60 mins in presence of ATP by Z'-LYTE assay
[7] = target: Mitogen-activated protein kinase kinase kinase kinase 4 (Homo sapiens, UniProt O95819); experiment: Inhibition of recombinant GST-tagged human MAP4K4 catalytic domain expressed in baculovirus expression system using Ser/Thr 07 peptide as substrate after 1 hr in presence of ATP by Z'-LYTE assay
[8] = target: Platelet-activating factor receptor (Homo sapiens) (UniProt P25105); experiment: Inhibition of human PAF at 10 uM relative to control
[9] = target: Glycine receptor (Rattus norvegicus) (UniProt P22771+P24524+P07727+P20781); experiment: Displacement of [3H]strychnine from glycine ion channel in Wistar rat spinal cord membranes at 10 uM incubated for 10 mins by radiometric scintillation analysis relative to control; format: cell membranes; conditions: Membrane
[10] = target: DNA-dependent protein kinase catalytic subunit (Homo sapiens, UniProt P78527); experiment: Inhibition of recombinant human DNA-PK expressed in baculovirus expression system using serine/threonine-26 peptide as substrate incubated for 60 mins in presence of ATP by Z'-LYTE assay
[11] = target: Epidermal growth factor receptor (Homo sapiens, UniProt P00533); experiment: Inhibition of recombinant human GST-tagged EGFR expressed in baculovirus expression system using tyr-04 peptide as substrate incubated for 60 mins in presence of ATP by Z'-LYTE assay
[12] = target: Epidermal growth factor receptor (Homo sapiens, UniProt P00533, T790M); experiment: Inhibition of human recombinant GST-tagged EGFR T790M mutant cytoplasmic domain expressed in baculovirus expression system using tyrosine 4 peptide as substrate after 60 mins in presence of ATP FRET based Z'-LYTE assay
[13] = target: Receptor-type tyrosine-protein kinase FLT3 (Homo sapiens, UniProt P36888, D835Y); experiment: Inhibition of recombinant human His-tagged FLT3 D835Y mutant cytoplasmic domain expressed in baculovirus expression system after 1 using tyrosine 2 as substrate after 1 hr in presence of ATP by ZYLTE assay
[14] = target: Serine/threonine-protein kinase mTOR (Homo sapiens, UniProt P42345); experiment: Inhibition of recombinant human GST-tagged mTOR catalytic domain (1360 to 2549 residues) expressed in baculovirus expression system using serine/threonine-11 peptide as substrate incubated for 60 mins in presence of ATP by Z'-LYTE assay
[15] = target: Rhodopsin kinase GRK7 (Homo sapiens, UniProt Q8WTQ7); experiment: Inhibition of recombinant full length human GST-tagged GRK7 expressed in baculovirus expression system using serine/threonine-16 peptide as substrate incubated for 60 mins in presence of ATP by Z'-LYTE assay
[16] = target: Insulin receptor (Homo sapiens, UniProt P06213); experiment: Inhibition of recombinant human GST-tagged INSR cytoplasmic domain expressed in baculovirus expression system using tyrosine-1 peptide as substrate incubated for 60 mins in presence of ATP by Z'-LYTE assay
[17] = target: Tyrosine-protein kinase JAK2 (Homo sapiens, UniProt O60674); experiment: Inhibition of human recombinant N-terminal GST tagged JAK2 JH1 catalytic domain (532 to 1132 residues) expressed in baculovirus expression system using Tyr6 peptide as measured after 1 hr in presence of ATP by Z'-LYTE assay
[18] = target: Mitogen-activated protein kinase kinase kinase 8 (Homo sapiens, UniProt P41279); experiment: Inhibition of recombinant human GST-tagged MAP3K8 catalytic domain expressed in baculovirus expression system using serine/threonine-3 peptide as substrate incubated for 60 mins in presence of ATP by Z'-LYTE assay
[19] = target: Serine/threonine-protein kinase Nek6 (Homo sapiens, UniProt Q9HC98); experiment: Inhibition of recombinant full length human GST-tagged NEK6 expressed in insect expression system using serine/threonine-22 peptide as substrate incubated for 60 mins in presence of ATP by Z'-LYTE assay
[20] = target: Platelet-derived growth factor receptor alpha (Homo sapiens, UniProt P16234, D842V); experiment: Inhibition of recombinant human GST-tagged PDGFRalpha D842V cytoplasmic domain expressed in baculovirus expression system using tyrosine-4 peptide as substrate incubated for 60 mins in presence of ATP by Z'-LYTE assay
[21] = target: Phosphorylase b kinase gamma catalytic chain, skeletal muscle/heart isoform (Homo sapiens, UniProt Q16816); experiment: Inhibition of recombinant full length human GST-tagged PHKG1 expressed in baculovirus expression system using serine/threonine-7 peptide as substrate incubated for 60 mins in presence of ATP by Z'-LYTE assay
[22] = target: cAMP-dependent protein kinase catalytic subunit PRKX (Homo sapiens, UniProt P51817); experiment: Inhibition of recombinant full length human GST-tagged PRKX expressed in baculovirus expression system using serine/threonine-1 peptide as substrate incubated for 60 mins in presence of ATP by Z'-LYTE assay
[23] = target: Rho-associated protein kinase 1 (Homo sapiens, UniProt Q13464); experiment: Inhibition of recombinant human GST-tagged ROCK1 catalytic domain expressed in baculovirus expression system using serine/threonine-7 peptide as substrate incubated for 60 mins in presence of ATP by Z'-LYTE assay
[24] = target: Ribosomal protein S6 kinase alpha-6 (Homo sapiens, UniProt Q9UK32); experiment: Inhibition of recombinant full length human N-terminal GST-tagged RPS6KA6 expressed in baculovirus expression system using ser/Thr20 peptide as substrate incubated for 60 mins in presence of ATP by Z'-LYTE assay
[25] = target: Tyrosine-protein kinase ZAP-70 (Homo sapiens, UniProt P43403); experiment: Inhibition of recombinant full length human His-tagged ZAP70 cytoplasmic domain expressed in baculovirus expression system using fluorophore-labeled tyrosine-07 peptide as substrate incubated for 60 mins in presence of ATP by Z'-LYTE assay
Chain of Tyrosine-protein kinase ZAP-70 (P43403 whole entry, the tested form may be a part): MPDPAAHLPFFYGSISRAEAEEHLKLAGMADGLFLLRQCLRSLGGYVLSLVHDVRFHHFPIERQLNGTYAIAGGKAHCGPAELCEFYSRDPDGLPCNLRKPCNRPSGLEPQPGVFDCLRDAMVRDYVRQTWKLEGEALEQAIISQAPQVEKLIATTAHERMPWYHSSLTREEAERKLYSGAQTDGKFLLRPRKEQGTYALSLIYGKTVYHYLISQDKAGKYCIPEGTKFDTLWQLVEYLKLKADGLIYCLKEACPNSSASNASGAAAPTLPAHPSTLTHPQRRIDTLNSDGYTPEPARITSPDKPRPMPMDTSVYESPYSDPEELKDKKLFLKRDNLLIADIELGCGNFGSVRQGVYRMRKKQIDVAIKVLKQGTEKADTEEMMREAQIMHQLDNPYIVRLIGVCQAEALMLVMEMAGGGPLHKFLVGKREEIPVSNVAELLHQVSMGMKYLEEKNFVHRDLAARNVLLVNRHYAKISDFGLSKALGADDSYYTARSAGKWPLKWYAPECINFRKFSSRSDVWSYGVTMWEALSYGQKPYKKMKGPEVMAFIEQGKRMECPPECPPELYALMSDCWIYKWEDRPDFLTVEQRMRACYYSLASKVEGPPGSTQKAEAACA

Chain of Platelet-derived growth factor receptor alpha (P16234 24-1089 D842V limits assumed): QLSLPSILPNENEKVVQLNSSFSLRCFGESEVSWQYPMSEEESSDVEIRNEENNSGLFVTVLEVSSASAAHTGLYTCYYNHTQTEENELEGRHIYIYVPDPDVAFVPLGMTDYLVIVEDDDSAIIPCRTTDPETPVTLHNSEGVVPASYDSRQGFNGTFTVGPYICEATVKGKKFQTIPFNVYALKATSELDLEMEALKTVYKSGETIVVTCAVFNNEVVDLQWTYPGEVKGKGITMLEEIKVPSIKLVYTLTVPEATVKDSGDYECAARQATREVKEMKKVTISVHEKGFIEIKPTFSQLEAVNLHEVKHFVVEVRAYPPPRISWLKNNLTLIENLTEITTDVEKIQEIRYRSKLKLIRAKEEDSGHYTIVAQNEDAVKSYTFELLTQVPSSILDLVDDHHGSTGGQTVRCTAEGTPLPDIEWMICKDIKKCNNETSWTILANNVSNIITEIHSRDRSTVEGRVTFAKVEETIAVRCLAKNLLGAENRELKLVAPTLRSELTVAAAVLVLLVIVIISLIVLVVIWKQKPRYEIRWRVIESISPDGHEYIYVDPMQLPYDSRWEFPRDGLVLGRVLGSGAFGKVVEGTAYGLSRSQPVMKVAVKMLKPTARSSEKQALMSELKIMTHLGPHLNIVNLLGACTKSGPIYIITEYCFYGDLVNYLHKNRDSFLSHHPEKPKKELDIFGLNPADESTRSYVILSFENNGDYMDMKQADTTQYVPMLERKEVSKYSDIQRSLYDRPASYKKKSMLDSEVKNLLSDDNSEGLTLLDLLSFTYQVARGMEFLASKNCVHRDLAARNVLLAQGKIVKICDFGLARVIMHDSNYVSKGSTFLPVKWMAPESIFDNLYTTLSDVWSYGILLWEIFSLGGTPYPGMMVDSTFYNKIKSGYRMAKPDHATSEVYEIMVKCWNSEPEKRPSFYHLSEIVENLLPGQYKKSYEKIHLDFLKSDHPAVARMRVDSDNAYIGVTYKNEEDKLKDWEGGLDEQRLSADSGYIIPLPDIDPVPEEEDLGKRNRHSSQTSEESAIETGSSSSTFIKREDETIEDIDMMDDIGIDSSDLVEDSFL
Chain of AMPK alpha2/beta1/gamma1 (P54646 whole entry, the tested form may be a part): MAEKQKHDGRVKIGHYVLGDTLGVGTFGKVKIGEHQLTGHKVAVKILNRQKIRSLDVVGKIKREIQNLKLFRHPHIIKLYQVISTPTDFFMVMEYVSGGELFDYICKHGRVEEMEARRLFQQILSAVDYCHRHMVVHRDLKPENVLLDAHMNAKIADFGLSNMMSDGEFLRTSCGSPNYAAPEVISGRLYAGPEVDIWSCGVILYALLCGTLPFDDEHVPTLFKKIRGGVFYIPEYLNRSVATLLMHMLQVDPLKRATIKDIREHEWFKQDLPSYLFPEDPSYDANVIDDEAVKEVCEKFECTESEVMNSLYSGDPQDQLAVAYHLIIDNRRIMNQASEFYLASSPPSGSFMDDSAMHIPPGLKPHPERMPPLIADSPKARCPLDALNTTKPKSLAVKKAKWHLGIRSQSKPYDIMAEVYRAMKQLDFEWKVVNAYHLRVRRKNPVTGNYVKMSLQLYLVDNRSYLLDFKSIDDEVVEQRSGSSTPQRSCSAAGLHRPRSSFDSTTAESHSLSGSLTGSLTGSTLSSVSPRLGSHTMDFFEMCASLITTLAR
Chain of AMPK alpha2/beta1/gamma1 (P54619 whole entry, the tested form may be a part): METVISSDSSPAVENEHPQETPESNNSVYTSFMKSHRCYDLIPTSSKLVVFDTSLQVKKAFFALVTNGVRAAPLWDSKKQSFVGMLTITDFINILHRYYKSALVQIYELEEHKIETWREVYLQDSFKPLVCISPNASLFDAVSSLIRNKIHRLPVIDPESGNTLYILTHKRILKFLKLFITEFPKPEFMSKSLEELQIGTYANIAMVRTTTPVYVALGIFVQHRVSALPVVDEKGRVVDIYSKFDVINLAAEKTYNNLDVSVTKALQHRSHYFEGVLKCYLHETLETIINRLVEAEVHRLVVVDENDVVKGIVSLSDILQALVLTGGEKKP
Chain of AMPK alpha2/beta1/gamma1 (Q9Y478 whole entry, the tested form may be a part): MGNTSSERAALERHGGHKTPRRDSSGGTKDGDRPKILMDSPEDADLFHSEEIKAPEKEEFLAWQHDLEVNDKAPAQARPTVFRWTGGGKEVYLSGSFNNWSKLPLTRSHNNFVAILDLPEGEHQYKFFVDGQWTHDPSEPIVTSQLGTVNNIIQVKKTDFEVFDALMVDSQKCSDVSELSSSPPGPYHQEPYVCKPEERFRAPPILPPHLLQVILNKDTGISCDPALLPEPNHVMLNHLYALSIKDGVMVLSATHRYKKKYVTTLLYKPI
Chain of Epidermal growth factor receptor (Homo sapiens, UniProt P00533) (P00533 whole entry, the tested form may be a part): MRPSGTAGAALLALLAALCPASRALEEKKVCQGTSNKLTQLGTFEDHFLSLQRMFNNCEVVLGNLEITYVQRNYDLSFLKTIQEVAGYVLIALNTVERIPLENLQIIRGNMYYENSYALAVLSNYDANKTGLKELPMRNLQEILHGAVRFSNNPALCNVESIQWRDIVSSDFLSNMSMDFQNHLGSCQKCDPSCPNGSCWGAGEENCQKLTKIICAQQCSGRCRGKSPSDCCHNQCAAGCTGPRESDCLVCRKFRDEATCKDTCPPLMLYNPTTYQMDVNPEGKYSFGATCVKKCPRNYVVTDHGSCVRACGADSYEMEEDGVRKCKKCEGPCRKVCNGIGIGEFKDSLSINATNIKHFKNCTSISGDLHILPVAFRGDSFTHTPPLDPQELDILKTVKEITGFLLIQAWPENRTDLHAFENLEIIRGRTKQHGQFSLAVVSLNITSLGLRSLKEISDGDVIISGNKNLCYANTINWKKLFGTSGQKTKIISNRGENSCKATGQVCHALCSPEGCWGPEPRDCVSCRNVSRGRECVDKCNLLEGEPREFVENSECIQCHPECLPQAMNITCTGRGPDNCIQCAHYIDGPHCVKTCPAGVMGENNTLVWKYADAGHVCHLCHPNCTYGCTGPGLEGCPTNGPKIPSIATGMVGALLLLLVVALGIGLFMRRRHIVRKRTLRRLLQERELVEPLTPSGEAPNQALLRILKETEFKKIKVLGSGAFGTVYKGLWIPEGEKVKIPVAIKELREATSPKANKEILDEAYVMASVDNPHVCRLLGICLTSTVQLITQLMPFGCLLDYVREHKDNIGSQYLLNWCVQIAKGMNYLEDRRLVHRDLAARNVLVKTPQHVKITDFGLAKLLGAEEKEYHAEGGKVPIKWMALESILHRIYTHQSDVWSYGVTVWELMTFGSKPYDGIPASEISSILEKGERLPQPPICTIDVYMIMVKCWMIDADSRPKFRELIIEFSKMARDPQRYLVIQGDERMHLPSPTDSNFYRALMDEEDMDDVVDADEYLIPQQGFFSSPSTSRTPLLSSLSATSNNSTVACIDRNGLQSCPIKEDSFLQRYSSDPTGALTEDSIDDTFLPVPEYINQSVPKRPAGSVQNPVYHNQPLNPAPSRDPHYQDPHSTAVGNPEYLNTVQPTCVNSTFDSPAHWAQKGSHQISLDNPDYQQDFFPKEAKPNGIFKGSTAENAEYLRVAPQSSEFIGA
Chain of Rhodopsin kinase GRK7 (Q8WTQ7 whole entry, the tested form may be a part): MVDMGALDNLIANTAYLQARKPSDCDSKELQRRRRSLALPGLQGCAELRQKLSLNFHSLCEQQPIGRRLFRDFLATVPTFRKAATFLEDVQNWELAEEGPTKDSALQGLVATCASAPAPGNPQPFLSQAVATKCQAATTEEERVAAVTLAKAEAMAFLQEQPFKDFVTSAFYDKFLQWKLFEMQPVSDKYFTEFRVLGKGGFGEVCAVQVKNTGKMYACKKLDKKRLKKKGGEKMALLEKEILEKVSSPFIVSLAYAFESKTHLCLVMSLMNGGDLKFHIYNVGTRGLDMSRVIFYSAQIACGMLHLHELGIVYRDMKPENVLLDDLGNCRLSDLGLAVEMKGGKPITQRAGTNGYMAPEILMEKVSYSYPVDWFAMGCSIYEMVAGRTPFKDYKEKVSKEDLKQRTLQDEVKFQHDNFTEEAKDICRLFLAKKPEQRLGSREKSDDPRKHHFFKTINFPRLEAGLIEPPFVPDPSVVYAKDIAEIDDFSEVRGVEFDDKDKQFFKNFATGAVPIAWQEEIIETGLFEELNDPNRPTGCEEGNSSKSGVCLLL
Chain of Calcium/calmodulin-dependent protein kinase type 1 (Q14012 whole entry): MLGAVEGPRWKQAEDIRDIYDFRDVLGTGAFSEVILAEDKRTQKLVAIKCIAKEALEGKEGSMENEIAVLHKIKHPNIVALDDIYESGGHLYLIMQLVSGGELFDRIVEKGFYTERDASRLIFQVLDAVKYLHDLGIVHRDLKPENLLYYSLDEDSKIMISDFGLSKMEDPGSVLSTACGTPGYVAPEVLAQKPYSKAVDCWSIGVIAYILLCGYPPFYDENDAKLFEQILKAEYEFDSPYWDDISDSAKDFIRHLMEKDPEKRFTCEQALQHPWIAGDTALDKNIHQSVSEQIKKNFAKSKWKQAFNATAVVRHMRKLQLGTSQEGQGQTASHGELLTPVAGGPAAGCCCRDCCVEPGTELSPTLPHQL

`C[C@@H]1C[C@H]1C(=O)N1CCN(c2cnc(C#N)c(-c3cnn(C)c3)n2)C[C@H]1C` gave a CL free [1] of 187 mL/min/kg, a fraction unbound [2] of 0.213 and an IC50 [3] of over 100 µM. The IC50 [4] was over 100 µM, the IC50 [5] was over 100 µM and the IC50 [6] was 37.7 µM. It also gave an IC50 [7] of 26.3 µM, an inhibition [8] of -5% and an inhibition [9] of 3%. The IC50 [10] was over 100 µM, the IC50 [11] was over 100 µM and the IC50 [12] was over 100 µM. For the same compound, the IC50 [13] was over 100 µM, the IC50 [14] was over 100 µM and the IC50 [15] was over 100 µM. It also gave an IC50 [16] of over 100 µM, an IC50 [17] of over 100 µM and an IC50 [18] of over 100 µM. It also gave an IC50 [19] of over 100 µM, an IC50 [20] of over 100 µM and an IC50 [21] of over 100 µM. It also gave an IC50 [22] of over 100 µM, an IC50 [23] of over 100 µM and an IC50 [24] of over 100 µM. It also gave an IC50 [25] of over 100 µM.
